Data on 43 molecules can be found in BindingDB's records for doi:10.7270/Q2TX3CTT (Broad Institute, 2010).

Molecules are shown by their SMILES. pEC50: −log10 of the molar value. Bounds are passed on as bounds.

By pEC50 is commonly meant the EC50 on a negative log10 scale, so that one unit is a factor of ten.

The test deals with Glycogen synthase kinase-3 beta (Homo sapiens, UniProt P49841). In words: GSK3beta kinase inhibitor potency, dose response, biochemical, luminescence, cell-free homogeneous, retest (AID 434954).
Chain of Glycogen synthase kinase-3 beta (P49841 whole entry): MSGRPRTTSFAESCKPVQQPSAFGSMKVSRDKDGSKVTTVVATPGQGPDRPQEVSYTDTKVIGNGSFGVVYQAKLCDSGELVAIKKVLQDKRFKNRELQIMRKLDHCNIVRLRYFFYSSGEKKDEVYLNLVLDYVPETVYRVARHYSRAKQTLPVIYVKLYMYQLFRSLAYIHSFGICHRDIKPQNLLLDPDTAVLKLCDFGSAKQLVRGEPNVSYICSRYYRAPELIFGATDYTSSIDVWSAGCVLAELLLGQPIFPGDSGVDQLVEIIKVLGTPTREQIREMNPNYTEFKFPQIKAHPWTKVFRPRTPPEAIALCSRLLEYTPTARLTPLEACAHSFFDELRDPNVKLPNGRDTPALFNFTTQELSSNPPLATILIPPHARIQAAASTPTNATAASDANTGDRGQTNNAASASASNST
For `CCOC(=O)COc1ccc(C(=O)c2ccccc2)c(O)c1` [(4-Benzoyl-3-hydroxy-phenoxy)-acetic acid ethyl ester], the pEC50 is below 3.52.
Molecule `Cc1nnc(SCC(=O)Nc2nccs2)n(N)c1=O` [SMR000323668] had a pEC50 below 3.52.
For `CCc1nnc(NC(=O)c2cc(-c3ccccc3)nn2-c2ccccc2)s1` [SMR000152662], the pEC50 was below 3.52.
Turning to `CC(C)[C@H](CO)Nc1nc(NCc2ccc(S(N)(=O)=O)cc2)c2ncn(C(C)C)c2n1` [4-[[[2-[[(2R)-1-hydroxy-3-methylbutan-2-yl]amino]-9-propan-2-yl-6-purinyl]amino]methyl]benzenesulfonamide], the pEC50 is 4.40.
In the case of `C=CCOC(=O)C1C(C)=Nc2ncnn2C1c1cccs1` (stereo not drawn) it was below 3.52; in that of `CC(=O)N1CCc2c(sc(NC(=O)C3COc4ccccc4O3)c2C(N)=O)C1` (stereo not drawn) [2-(2,3-dihydro-1,4-benzodioxin-3-ylcarbonylamino)-6-ethanoyl-5,7-dihydro-4H-thieno[2,3-c]pyridine-3-carboxamide], 5.08; in that of `COc1cccc(C(=O)Nc2nc(C)cs2)c1`, below 3.52.
As for `CC1(C)CC(=O)C=C(Nc2cccc(C(F)(F)F)c2)C1` [5,5-dimethyl-3-[[3-(trifluoromethyl)phenyl]amino]cyclohex-2-en-1-one], the pEC50 is below 3.52.
As to `Cc1[nH]nc2c1C(c1ccc(F)cc1)C1C(=O)CC(C)(C)CC1=N2` (stereo not drawn) [4-(4-fluorophenyl)-3,7,7-trimethyl-1,4,6,7,8,9-hexahydro-5H-pyrazolo[3,4-b]quinolin-5-one], the pEC50 is 5.41.
In the case of `Cc1ccc(Nc2nc(-c3ccncc3)nc3ccccc23)cc1` [MLS000769531] it was below 3.52.
In the case of `Clc1ccc2[nH]c3c(c2c1)CCc1c[nH]nc1-3` [MLS000108710] it was 4.60.
The molecule `COC(=O)c1ccc(NC(=O)CCN2CCN(Cc3ccccc3)CC2)cc1` [4-[3-(4-Benzyl-piperazin-1-yl)-propionylamino]-benzoic acid methyl ester] gave a pEC50 below 3.52.
In the case of `Cc1ccc(/C=C2/Sc3ccc(C(=O)NCCN4CCOCC4)cc3NC2=O)cc1` it was below 3.52.
For `Cc1cc(NC(=O)/C=C/c2cccc(F)c2)n(-c2nc3ccccc3[nH]2)n1` [(E)-N-[2-(1H-benzimidazol-2-yl)-5-methylpyrazol-3-yl]-3-(3-fluorophenyl)prop-2-enamide] the value was below 3.52; for `Cn1nc(C(F)(F)F)c2cc(NC(=O)OCc3ccc(C(C)(C)C)cc3)sc21` [(4-tert-butylphenyl)methyl N-[1-methyl-3-(trifluoromethyl)thieno[2,3-c]pyrazol-5-yl]carbamate], below 3.52; for `CC(CC(=O)NCc1ccccc1)=NNC(=O)c1cnccn1` [MLS000701004], below 3.52.
In the case of `CC1(C)CC(=O)C2C(=NC3=C(C(=O)c4ccccc43)C2c2ccc(O)cc2)C1` (stereo not drawn) [10-(4-hydroxyphenyl)-7,7-dimethyl-5,6,8,10-tetrahydroindeno[1,2-b]quinoline-9,11-dione] it was below 3.52.
Regarding `COc1ccc(-c2nn(CCC(=O)O)cc2/C=C/C(=O)O)cc1[N+](=O)[O-]` [3-[4-[(E)-2-carboxyethenyl]-3-(4-methoxy-3-nitrophenyl)pyrazol-1-yl]propanoic acid], the pEC50 is below 3.52.
For `O=C(c1noc2c1CCc1ccccc1-2)N1CCOCC1` [3-(morpholin-4-ylcarbonyl)-4,5-dihydronaphtho[2,1-d]isoxazole] the value was below 3.52; for `O=C(O)CNCC1COc2ccccc2O1` (stereo not drawn) [MLS000068078], below 3.52; for `CCCn1nc(NC(=O)c2cccs2)c2cc3ccc(C)cc3nc21` [N-(7-methyl-1-propylpyrazolo[3,4-b]quinolin-3-yl)thiophene-2-carboxamide], below 3.52.
Consider `CC1(C)CC(=O)C=C(Nc2ccccn2)C1`, for which the pEC50 is below 3.52.
In the case of `CC(=O)N1CCc2c(sc(NC(=O)CCS(=O)(=O)c3ccc(C)cc3)c2C(N)=O)C1` [6-ethanoyl-2-[3-(4-methylphenyl)sulfonylpropanoylamino]-5,7-dihydro-4H-thieno[2,3-c]pyridine-3-carboxamide] it was 4.58; in that of `CCOC(=O)c1nnn(-c2nonc2N)c1CN1CCc2ccccc2C1` [ethyl 1-(4-amino-1,2,5-oxadiazol-3-yl)-5-(3,4-dihydro-1H-isoquinolin-2-ylmethyl)triazole-4-carboxylate], 4.15.
Regarding `CCc1n[nH]c(=S)n1N=CC(C)=Cc1ccccc1` [MLS001164489], the pEC50 was below 3.52.
For `Fc1ccc(CSc2nnc(-c3ccco3)o2)cc1` the value was below 3.52.
Turning to `Cc1ccc(C(=O)c2coc3ccc(O)c(Cl)c23)cc1` [(4-chloro-5-hydroxy-3-benzofuranyl)-(4-methylphenyl)methanone], the negative-log EC50 (pEC50) was below 3.52.
Consider `NC(=S)NN=Cc1cn(CCC(=O)O)nc1-c1cccc(Br)c1` [3-[3-(3-bromophenyl)-4-[(carbamothioylhydrazinylidene)methyl]-1-pyrazolyl]propanoic acid], for which the negative-log EC50 (pEC50) is below 3.52.
For `O=c1cc(-c2ccccc2Cl)oc2c(NS(=O)(=O)c3cccs3)ccc(O)c12` [MLS000518499] the value was below 3.52; for `Cc1cnc(C(=O)OCC(=O)N2c3ccccc3CC2C)cn1` (stereo not drawn) [[2-(2-methyl-2,3-dihydroindol-1-yl)-2-oxoethyl] 5-methylpyrazine-2-carboxylate], below 3.52; for `CC(=O)c1cccc(Nc2nc(-c3ccccc3)nc3ccccc23)c1` [SMR000516691], below 3.52.
For `COc1ccccc1/C=C1\C(=O)Nc2ccccc21` [SMR000523491] the value was below 3.52; for `O=C(COc1cccc2cccnc12)NN=Cc1ccc(O)cc1` [N'-[(4-oxo-1-cyclohexa-2,5-dienylidene)methyl]-2-(8-quinolinyloxy)acetohydrazide], 5.03.
In the case of `COc1ccccc1Oc1coc2c(CN(C)C)c(O)ccc2c1=O` [8-[(dimethylamino)methyl]-7-hydroxy-3-(2-methoxyphenoxy)chromen-4-one], the pEC50 was below 3.52.
In the case of `CNc1nc(N)nc(-c2cc(Cl)ccc2OC)n1` [6-(5-chloranyl-2-methoxy-phenyl)-N2-methyl-1,3,5-triazine-2,4-diamine] it was below 3.52; in that of `Cc1ccc2c(c1)cc1c(O)nncn12` [MLS000551564], below 3.52.
In turn, `Cc1ccc(-c2nn(-c3ccccc3)cc2C=NNS(=O)(=O)c2ccccc2)cc1` [SMR000186234] had a negative logarithm of the EC50 (pEC50) below 3.52.
On to `CC(N=Nc1nccnc1Cl)c1ccc(Br)cc1` (stereo not drawn) [N-[1-(4-bromophenyl)ethylideneamino]-3-chloranyl-pyrazin-2-amine], for which the pEC50 was below 3.52.
In the case of `CCc1ccc(C(=O)c2cnc3ccc(OC)cc3c2N2CCN(CC)CC2)cc1` [(4-ethylphenyl)-[4-(4-ethylpiperazin-1-yl)-6-methoxy-quinolin-3-yl]methanone] it was 4.68; in that of `CC(=O)Nc1ccc(S(=O)(=O)c2cc(O)ccc2O)cc1`, below 3.52.
In the case of `CC(Cl)C(=O)Nc1ncc(C(F)(F)F)cc1Cl` (stereo not drawn) [SMR000152526] it was below 3.52; in that of `CN1CCc2c(sc(NC(=O)Cc3ccccc3)c2C(N)=O)C1` [MLS000879155], below 3.52; in that of `O=C(N[N-][CH+]c1ccc(N2CCCC2)c([N+](=O)[O-])c1)c1cccnc1` [N-[(3-nitro-4-pyrrolidin-1-ylphenyl)methylideneamino]pyridine-3-carboxamide], below 3.52.
